Laboratory results taken from US20240299393A1, “SMALL MOLECULE DISRUPTORS OF PROTEIN INTERACTIONS IN HISTONE DEACETYLASE COMPLEXES” (Dana-Farber Cancer Institute, Inc., priority 2021, published 2024).

Experiments:
[1] = molecular target: T1, Sin3-Ume6 (Saccharomyces cerevisiae, UniProt P22579); assay: GPCA binary PPI inhibition in HEK293T cells, Sin3-Ume6; format: cell-based, human HEK293T cells
T1 construct: ORFs corresponding to full-length subunits of the Rpd3L HDAC complex were PCR-amplified from yeast genomic DNA; expressed in transfected cells; host or cells: HEK293T
Protocol: GPCA (N1-N2 version) was implemented as reported in [Choi et al 2019]. HEK293T cells were seeded at 6×10^4 cells per well in 96-well, flat-bottom, cell culture microplates (Greiner Bio-One, #655083), and cultured in Dulbecco's modified Eagle's medium (DMEM) supplemented with 10% fetal calf serum at 37° C. and 5% CO2. Twenty-four hours later, cells were transfected with 100 ng of each GPCA plasmid (GPCA-N1 and GPCA-N2) using linear polyethylenimine (PEI) to co-express the protein pairs fused with complementary luciferase fragments, Luc1 and Luc2. The DNA/PEI ratio used for transfection was 1:3 (mass:mass). […] Luminescence was measured by auto-injecting 50 μL Renilla luciferase substrate (Renilla Luciferase Assay system, catalog No. E2820, Promega) per well and integrating light output for 4 s using a TriStar luminometer (Berthold).
The ability of compounds to inhibit binary PPIs in the Sin3/Rpd3L HDAC complex was tested by GPCA in a high-throughput screening format. […] The luminescence signal for each PPI was measured by averaging the different DMSO replicates, and calculating the standard deviation of DMSO values for each interaction. […] For each interaction, a particular compound was scored as a PPI inhibitor when it decreased its luminescence signal by at least three standard deviations compared to the corresponding averaged DMSO value. […]

[2] = Mouse liver microsome stability test; format: in vitro ADME; details: 1 mg/mL hepatic microsomes
Protocol: Mouse liver microsome (MLM) half-life measurements were performed by Scripps Florida Pharmacology Core, according to their protocols [Lamberto et al 2017]. 1 mg/mL hepatic microsomes was used to test compounds.
To assess whether E6R may be suitable for testing the effect of HDAC inhibition via new mechanisms in mouse, the half-life […] and intrinsic clearance (Clint) of this compound was first measured using a standard microsomal metabolic assay where sunitinib was used as a control [Lamberto et al 2017]. In this setting, compound degradation is induced by concentrated microsomes isolated from mouse liver. In particular, these hepatic extracts contain the cytochrome P450 system that is primarily responsible for first pass metabolism in vivo.

T1 sequence (P22579 whole entry): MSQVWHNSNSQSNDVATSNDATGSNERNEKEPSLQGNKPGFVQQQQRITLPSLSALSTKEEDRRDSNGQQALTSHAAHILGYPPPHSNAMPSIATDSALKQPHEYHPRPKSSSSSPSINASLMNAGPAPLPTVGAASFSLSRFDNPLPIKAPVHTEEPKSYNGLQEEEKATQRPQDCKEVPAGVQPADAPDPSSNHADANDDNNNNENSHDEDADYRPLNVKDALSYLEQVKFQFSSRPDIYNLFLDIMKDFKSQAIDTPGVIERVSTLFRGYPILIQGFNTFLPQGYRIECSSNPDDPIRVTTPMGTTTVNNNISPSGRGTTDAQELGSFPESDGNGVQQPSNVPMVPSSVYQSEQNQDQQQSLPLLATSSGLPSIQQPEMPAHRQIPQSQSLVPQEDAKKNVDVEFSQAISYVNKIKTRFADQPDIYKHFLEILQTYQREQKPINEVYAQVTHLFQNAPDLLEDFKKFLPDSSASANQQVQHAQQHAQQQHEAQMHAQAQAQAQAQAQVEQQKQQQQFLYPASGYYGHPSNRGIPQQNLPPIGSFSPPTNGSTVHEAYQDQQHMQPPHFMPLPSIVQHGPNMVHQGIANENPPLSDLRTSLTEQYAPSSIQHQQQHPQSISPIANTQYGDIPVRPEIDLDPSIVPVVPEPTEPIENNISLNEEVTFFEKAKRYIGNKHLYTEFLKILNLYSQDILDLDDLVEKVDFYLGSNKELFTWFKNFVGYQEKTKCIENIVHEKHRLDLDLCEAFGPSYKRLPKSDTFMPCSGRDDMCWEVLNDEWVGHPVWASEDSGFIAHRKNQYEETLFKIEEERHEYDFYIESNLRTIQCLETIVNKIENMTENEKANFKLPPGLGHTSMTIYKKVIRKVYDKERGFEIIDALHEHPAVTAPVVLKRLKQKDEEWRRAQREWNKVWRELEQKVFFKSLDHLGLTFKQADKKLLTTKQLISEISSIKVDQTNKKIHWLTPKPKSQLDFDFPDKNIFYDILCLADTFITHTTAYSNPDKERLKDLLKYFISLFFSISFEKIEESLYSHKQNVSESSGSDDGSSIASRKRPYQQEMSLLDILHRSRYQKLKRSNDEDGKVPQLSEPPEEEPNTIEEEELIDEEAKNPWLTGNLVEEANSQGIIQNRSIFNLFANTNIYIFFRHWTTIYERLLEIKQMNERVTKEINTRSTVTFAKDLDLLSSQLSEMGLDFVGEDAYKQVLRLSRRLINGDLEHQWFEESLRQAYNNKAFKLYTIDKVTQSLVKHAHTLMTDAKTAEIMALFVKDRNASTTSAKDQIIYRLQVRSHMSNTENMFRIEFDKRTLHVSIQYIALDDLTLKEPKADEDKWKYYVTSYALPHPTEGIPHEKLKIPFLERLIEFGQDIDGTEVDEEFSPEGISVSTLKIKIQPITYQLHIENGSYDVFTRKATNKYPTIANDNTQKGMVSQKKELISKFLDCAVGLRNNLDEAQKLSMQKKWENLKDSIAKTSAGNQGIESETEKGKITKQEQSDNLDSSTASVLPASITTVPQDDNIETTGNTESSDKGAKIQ

SMILES	inhibition of Sin3-Ume6 PPI (fold change over DMSO) ([1]; 10 μM, 1 h)	inhibition of Sin3-Ume6 PPI ([1]; GPCA)	half-life in mouse liver microsomes [2]
CC(NC(=O)c1c(O)n2ccccc2nc1=O)c1ccccc1 (racemic) [E6]	~2.5 fold	selectively inhibit	–
C[C@@H](NC(=O)c1c(O)n2ccccc2nc1=O)c1ccccc1 [E6R, 4-hydroxy-2-oxo-N—((R)-1-phenylethyl)-3,4-dihydro-2H-pyrido[, 2-a]pyrimidine-3-carboxamide]	–	–	17 min
